# Bridge positions count the residues as written; N and C are the ends. Peptide text beside a SMILES is read from it.
# Tests used:
# MRSA 6313 = type: cell-based, Staphylococcus aureus; details: cation adjusted Mueller-Hinton broth, ~10^6 CFU/mL, 24 h, 37 °C, OD600 <0.1 in at least 3 of 4 wells, 2-128 μg/mL; shaded values previously reported ref 18
# Description: (§1) Assays were performed by Trideum Biosciences (Frederick, MD, USA). Isolates were thawed from −80 °C storage and sub-cultured on trypticase soy agar plates at 37 °C prior to experimentation. A single colony was aseptically picked from the agar plate and released in 30 mL trypticase soy broth and incubated overnight at 37 °C incubator. Following which the bacterial culture was diluted to approximately 10^6 colony forming units (CFU)/mL using 2X cation adjusted Mueller–Hinton broth and added to the dAMP solutions (0, 2, 4, 8, 16, 32, 64, and 128 μg/mL) which had been formulated in water at 256 μg/mL and then serially diluted in media on 96-well pates. For fungal evaluation, potato dextrose broth and potato dextrose agar plates were used. The treated cultures were then incubated for 24 h at 37 °C and pathogen growth was measured by absorbance at 600 nm. Four replicas were included for each dAMP concentration. Each MIC was assigned to the lowest test agent concentration resulting in at least three out of four wells showing no growth based on an optical density (OD) reading of <0.1.
# S. aureus 6061 = type: cell-based, Staphylococcus aureus; details: cation adjusted Mueller-Hinton broth, ~10^6 CFU/mL, 24 h, 37 °C, OD600 <0.1 in at least 3 of 4 wells, 2-128 μg/mL; shaded values previously reported ref 18
# Description: as §1
# MRSA ATCC 33592 = type: cell-based, Staphylococcus aureus; details: cation adjusted Mueller-Hinton broth, ~10^6 CFU/mL, 24 h, 37 °C, OD600 <0.1 in at least 3 of 4 wells, 2-128 μg/mL; shaded values previously reported ref 18
# Description: as §1
# S. aureus B-767 = type: cell-based, Staphylococcus aureus; details: cation adjusted Mueller-Hinton broth, ~10^6 CFU/mL, 24 h, 37 °C, OD600 <0.1 in at least 3 of 4 wells, 2-128 μg/mL; shaded values previously reported ref 18
# Description: as §1
# MRSA 6381 = type: cell-based, Staphylococcus aureus; details: cation adjusted Mueller-Hinton broth, ~10^6 CFU/mL, 24 h, 37 °C, OD600 <0.1 in at least 3 of 4 wells, 2-128 μg/mL; shaded values previously reported ref 18
# Description: as §1
# A. baumannii ATCC 17978 = type: cell-based, Acinetobacter baumannii; details: cation adjusted Mueller-Hinton broth, ~10^6 CFU/mL, 24 h, 37 °C, OD600 <0.1 in at least 3 of 4 wells, 2-128 μg/mL; shaded values previously reported ref 18
# Description: as §1
# A. baumannii 6838 = type: cell-based, Acinetobacter baumannii; details: cation adjusted Mueller-Hinton broth, ~10^6 CFU/mL, 24 h, 37 °C, OD600 <0.1 in at least 3 of 4 wells, 2-128 μg/mL; shaded values previously reported ref 18
# Description: as §1
# A. baumannii 6043 = type: cell-based, Acinetobacter baumannii; details: cation adjusted Mueller-Hinton broth, ~10^6 CFU/mL, 24 h, 37 °C, OD600 <0.1 in at least 3 of 4 wells, 2-128 μg/mL; shaded values previously reported ref 18
# Description: as §1
# [1] = tested on: S. aureus 49525 (Xen36 luciferase); type: cell-based, Staphylococcus aureus; details: 8 μg/mL, 60 min incubation, bioluminescence, triplicates from two independent experiments
# Source text: (§2) Fungal and bacterial strains were obtained from American Type Culture Collection (ATCC, Manassas, VA, USA) or the clinical isolate collection at Trideum Biosciences (Frederick, MD, USA) and are presented in Table 1 and Table 2, respectively. Bioluminescence strains of P. aeruginosa 19660, transfected with the Xen5 luciferase gene, and S. aureus ATCC R 49525TM (Wright), transfected with the Xen36 luciferase gene, were obtained from Perkin Elmer (Waltham, MA, USA).
# (§3) Real-time killing of bacterial cells, P. aeruginosa or S. aureus, and mammalian cytotoxicity to assess dAMP off-target toxicity was evaluated using bioluminescent cells. The L929 fibroblast cells (ATCC, Manassas, VA, USA) were made bioluminescent by transfection with a luciferase gene. Cells (1 × 10^4 cells, 100 μL) were plated in 96-well black-walled plates and the candidate dAMPs were 2-fold serially diluted from specified concentrations in growth medium supplemented with 150 μg/mL D-luciferin. Each concentration was performed in triplicate, with the final volume being 200 μL. Imaging was performed at select times after the addition of the dAMP, and compared to concurrently run vehicle-control, using an IVIS Lumina imaging system (Caliper Life Sciences, Inc., Hopkinton, MA, USA). For imaging, the 96-well plate was positioned on the stage (12.5-cm field of view), with an open emission filter, binning of 4, and f-stop 1 and a 1-min exposure time. Monitoring bioluminescence allows assessment of the kinetics of cellular viability as there is a tight correlation between the bioluminescent signal and cell viability. Data analysis was performed using the Living Image software program (version 4.3, Caliper Life Sciences, Inc., Hopkinton, MA, USA).
# (§4) Figure 3 RP553, RP556, RP557 rapidly destroy P. aeruginosa and S. aureus. The bioluminescence of viable P. aeruginosa 19,660 and S. aureus 49,525 cells was quantitated in real time with an IVIS Lumina bioimaging system. Data represent the mean ± SE of triplicate replicates from two independent experiments. For some points, the error bars are shorter than the height of the symbols.
# K. pneumonia 6069 = type: cell-based, Klebsiella pneumoniae; details: cation adjusted Mueller-Hinton broth, ~10^6 CFU/mL, 24 h, 37 °C, OD600 <0.1 in at least 3 of 4 wells, 2-128 μg/mL; shaded values previously reported ref 18
# Description: as §1
# K. pneumonia ATCC 10031 = type: cell-based, Klebsiella pneumoniae; details: cation adjusted Mueller-Hinton broth, ~10^6 CFU/mL, 24 h, 37 °C, OD600 <0.1 in at least 3 of 4 wells, 2-128 μg/mL; shaded values previously reported ref 18
# Description: as §1
# [2] = tested on: Aspergillus fumigatus 9648; type: cell-based; details: potato dextrose broth, 24 h, 37 °C, OD600 <0.1 in at least 3 of 4 wells, dose range 2 to 128 µg/mL; shaded values previously reported ref 17
# Description: as §1
# [3] = tested on: Aspergillus flavus MYA-3651; type: cell-based; details: potato dextrose broth, 24 h, 37 °C, OD600 <0.1 in at least 3 of 4 wells, dose range 2 to 128 µg/mL; shaded values previously reported ref 17
# Description: as §1
# [4] = tested on: Candida parapsilosis Y-1761; type: cell-based; details: potato dextrose broth, 24 h, 37 °C, OD600 <0.1 in at least 3 of 4 wells, dose range 2 to 128 µg/mL; shaded values previously reported ref 17
# Description: as §1
# S. epidermis ATCC 51625 = type: cell-based; details: cation adjusted Mueller-Hinton broth, ~10^6 CFU/mL, 24 h, 37 °C, OD600 <0.1 in at least 3 of 4 wells, 2-128 μg/mL; shaded values previously reported ref 18
# Description: as §1
# Candida krusei Y-27825 = type: cell-based; details: potato dextrose broth, 24 h, 37 °C, OD600 <0.1 in at least 3 of 4 wells, dose range 2 to 128 µg/mL; shaded values previously reported ref 17
# Description: as §1
# [5] = tested on: Fusarium solani NRRL 28548; type: cell-based; details: potato dextrose broth, 24 h, 37 °C, OD600 <0.1 in at least 3 of 4 wells, dose range 2 to 128 µg/mL; shaded values previously reported ref 17
# Description: as §1
# Candida albicans Y-6359 = type: cell-based; details: potato dextrose broth, 24 h, 37 °C, OD600 <0.1 in at least 3 of 4 wells, dose range 2 to 128 µg/mL; shaded values previously reported ref 17
# Description: as §1
# [6] = tested on: Mucor circinelloides NRRL 3631; type: cell-based; details: potato dextrose broth, 24 h, 37 °C, OD600 <0.1 in at least 3 of 4 wells, dose range 2 to 128 µg/mL; shaded values previously reported ref 17
# Description: as §1
# Candida albicans Y-326 = type: cell-based; details: potato dextrose broth, 24 h, 37 °C, OD600 <0.1 in at least 3 of 4 wells, dose range 2 to 128 µg/mL; shaded values previously reported ref 17
# Description: as §1
# [7] = tested on: Aspergillus flavus MYA-1004; type: cell-based; details: potato dextrose broth, 24 h, 37 °C, OD600 <0.1 in at least 3 of 4 wells, dose range 2 to 128 µg/mL; shaded values previously reported ref 17
# Description: as §1
# E. cloacae 6053 = type: cell-based; details: cation adjusted Mueller-Hinton broth, ~10^6 CFU/mL, 24 h, 37 °C, OD600 <0.1 in at least 3 of 4 wells, 2-128 μg/mL; shaded values previously reported ref 18
# Description: as §1
# E. cloacae 6054 = type: cell-based; details: cation adjusted Mueller-Hinton broth, ~10^6 CFU/mL, 24 h, 37 °C, OD600 <0.1 in at least 3 of 4 wells, 2-128 μg/mL; shaded values previously reported ref 18
# Description: as §1
# [8] = tested on: Aspergillus fumigatus 9651; type: cell-based; details: potato dextrose broth, 24 h, 37 °C, OD600 <0.1 in at least 3 of 4 wells, dose range 2 to 128 µg/mL; shaded values previously reported ref 17
# Description: as §1
# [9] = tested on: Absidia corymbifera NRRL 6251; type: cell-based; details: potato dextrose broth, 24 h, 37 °C, OD600 <0.1 in at least 3 of 4 wells, dose range 2 to 128 µg/mL; shaded values previously reported ref 17
# Description: as §1
# Candida krusei Y-27803 = type: cell-based; details: potato dextrose broth, 24 h, 37 °C, OD600 <0.1 in at least 3 of 4 wells, dose range 2 to 128 µg/mL; shaded values previously reported ref 17
# Description: as §1
# [10] = tested on: Candida parapsilosis Y-1763; type: cell-based; details: potato dextrose broth, 24 h, 37 °C, OD600 <0.1 in at least 3 of 4 wells, dose range 2 to 128 µg/mL; shaded values previously reported ref 17
# Description: as §1
# [11] = tested on: P. aeruginosa 19660 (Xen5 luciferase); assay: Bioluminescent time-kill assay; type: cell-based, Pseudomonas aeruginosa; details: 8 μg/mL; RP553 at 60 min; bioluminescence
# Source text: as §2, §3, §4
# P. aeruginosa ATCC 27853 = type: cell-based, Pseudomonas aeruginosa; details: cation adjusted Mueller-Hinton broth, ~10^6 CFU/mL, 24 h, 37 °C, OD600 <0.1 in at least 3 of 4 wells, 2-128 μg/mL; shaded values previously reported ref 18
# Description: as §1
# P. aeruginosa 6186 = type: cell-based, Pseudomonas aeruginosa; details: cation adjusted Mueller-Hinton broth, ~10^6 CFU/mL, 24 h, 37 °C, OD600 <0.1 in at least 3 of 4 wells, 2-128 μg/mL; shaded values previously reported ref 18
# Description: as §1
# P. aeruginosa ATCC 19660 = type: cell-based, Pseudomonas aeruginosa; details: cation adjusted Mueller-Hinton broth, ~10^6 CFU/mL, 24 h, 37 °C, OD600 <0.1 in at least 3 of 4 wells, 2-128 μg/mL; shaded values previously reported ref 18
# Description: as §1
# L929 fibroblast cells = assay: Bioluminescent mammalian cytotoxicity assay; type: cell-based, murine; details: L929 fibroblasts, up to 64 μg/mL, 8 h of exposure, bioluminescence
# Description: as §3, with “Data analysis was performed using the Living Image software program (version 4.3, Caliper Life Sciences, Inc., Hopkinton, MA, USA).” left out
# Figure 2 RP504, RP556 and RP557 induce limited mammalian cell toxicity. […] Cells were plated at 1×10^4 cells/well, allowed to adhere overnight and the specific dAMP added, and cytotoxicity evaluated through 8 h. […]
smiles,measurement,setting,value
"CC[C@H](C)[C@@H]1NC(=O)CNC(=O)[C@H](CCCCN)NC(=O)[C@H](Cc2ccc(O)cc2)NC(=O)[C@@H]2CSSC[C@H](NC1=O)C(=O)N[C@@H](Cc1ccc(O)cc1)C(=O)N[C@@H](CCCCN)C(=O)N[C@@H](CCCCN)C(=O)N[C@H](C(=O)N[C@@H](CCCCN)C(N)=O)CSSC[C@H](NC(=O)[C@H](Cc1c[nH]c3ccccc13)NC(=O)[C@@H](N)CCCNC(=N)N)C(=O)N[C@@H](Cc1ccccc1)C(=O)N[C@@H](CCCCN)C(=O)N[C@@H](C(C)C)C(=O)N2 [RP556] (H-RWCFKVCYKGICYKKCK-NH2; disulfide 3-16, 7-12)",MIC against MRSA 6313,MRSA 6313,8 µg/mL
same,MIC against S. aureus 6061,S. aureus 6061,16 µg/mL
same,MIC against MRSA ATCC 33592,MRSA ATCC 33592,4 µg/mL
same,MIC against S. aureus B-767,S. aureus B-767,8 µg/mL
same,MIC against MRSA 6381,MRSA 6381,4 µg/mL
same,MIC against A. baumannii ATCC 17978,A. baumannii ATCC 17978,8 µg/mL
same,MIC against A. baumannii 6838,A. baumannii 6838,8 µg/mL
same,MIC against A. baumannii 6043,A. baumannii 6043,8 µg/mL
same,S. aureus killing,[1],45%
same,MIC against K. pneumonia 6069,K. pneumonia 6069,8 µg/mL
same,MIC against K. pneumonia ATCC 10031,K. pneumonia ATCC 10031,8 µg/mL
same,MIC against Aspergillus fumigatus 9648,[2],64 µg/mL
same,MIC against Aspergillus flavus MYA-3651,[3],64 µg/mL
same,MIC against Candida parapsilosis Y-1761,[4],32 µg/mL
same,MIC against S. epidermis ATCC 51625,S. epidermis ATCC 51625,4 µg/mL
same,MIC against Candida krusei Y-27825,Candida krusei Y-27825,32 µg/mL
same,MIC against Fusarium solani NRRL 28548,[5],2 µg/mL
same,MIC against Candida albicans Y-6359,Candida albicans Y-6359,8 µg/mL
same,MIC against Mucor circinelloides NRRL 3631,[6],64 µg/mL
same,MIC against Candida albicans Y-326,Candida albicans Y-326,16 µg/mL
same,MIC against Aspergillus flavus MYA-1004,[7],64 µg/mL
same,MIC against E. cloacae 6053,E. cloacae 6053,8 µg/mL
same,MIC against E. cloacae 6054,E. cloacae 6054,8 µg/mL
same,MIC against Aspergillus fumigatus 9651,[8],64 µg/mL
same,MIC against Absidia corymbifera NRRL 6251,[9],2 µg/mL
same,MIC against Candida krusei Y-27803,Candida krusei Y-27803,16 µg/mL
same,MIC against Candida parapsilosis Y-1763,[10],2 µg/mL
same,P. aeruginosa killing (in words),[11],immediate eradication
same,MIC against P. aeruginosa ATCC 27853,P. aeruginosa ATCC 27853,8 µg/mL
same,MIC against P. aeruginosa 6186,P. aeruginosa 6186,4 µg/mL
same,MIC against P. aeruginosa ATCC 19660,P. aeruginosa ATCC 19660,8 µg/mL
same,mammalian cell toxicity (in words),L929 fibroblast cells,Limited toxicity

# Reference: paper PMC7559897, “Designed Antimicrobial Peptides Against Trauma-Related Cutaneous Invasive Fungal Wound Infections” (Journal of Fungi, 2020)
